Experimental data from publication PMC5274652, “Antagonizing Retinoic Acid Receptors Increases Myeloid Cell Production by Cultured Human Hematopoietic Stem Cells” (Archivum Immunologiae et Therapiae Experimentalis, 2016).

Legend:
[1] = system: NB-4 cells; experiment: Differentiation of NB-4 cells (CD11b/CD14 flow cytometry); format: cell-based, human; details: 96 h
Method: NB-4 and KG1 cells were obtained from the German Resource Center for Biological Material (DSMZ GmbH, Braunschweig, Germany). The cells were grown in RPMI-1640 medium supplemented with 10 % fetal bovine serum (FBS), 100 U/ml penicillin, and 100 µg/ml streptomycin (Sigma, St Louis, MO, USA). Cells were grown at 37 °C in 5 % CO2.
(§1) The expression of differentiation markers at the cell surface was determined by flow cytometry. Differentiation of NB-4 and KG1 cells was measured by staining using the monoclonal antibodies CD11b-FITC and CD14-PE and appropriately labeled isotype controls (all from ImmunoTools, Friesoythe, Germany). Differentiation of human CD34^+ve cells was measured by triple-color staining using various cocktails of phycoerythrin-, fluorescein isothyocyanate-, and PerCP-monoclonal antibodies (from Becton–Dickinson, San Jose, CA, USA). The markers used to identify cell populations were as follows: CD45^+ve leukocytes; CD34^+ve/CD133^+ve HSCs; CD33^+ve/CD13^+ve immature myeloid; CD117^+ve myeloblasts and promyelocytes; CD11b^+ve/CD15^+ve mature myeloid; CD11b^+ve/CD65^+ve neutrophils; CD11b^+ve/CD14^+ve monocytes; glycophorin^+ve A erythroid cells; CD61^+ve megakaryoblasts and platelets; CD2^+ve/CD5^+ve/CD7^+ve T cells and NK cells; CD56^+ve NK cells; CD19^+ve/CD20^+ve B cells; and CD10^+ve B lymphocyte progenitors; and present on mature neutrophils and DR^+ve progenitors and present on mature monocytes. The cells were stained with 1 µl of the fluorescently labeled antibody (or the appropriate control immunoglobulin) for 1 h on ice. Next, they were washed with ice-cold phosphate-buffered saline (PBS) and suspended in 0.5 ml PBS supplemented with 0.1 % bovine serum albumin (Sigma, St Louis, MO, USA) prior to analysis on FACS Calibur flow cytometer (Becton–Dickinson, San Jose, CA, USA). The acquisition parameters were set for an isotype control. Cells were analyzed using a FACSCalibur, and data analysis was performed using the CellQuest Pro software (Becton–Dickinson, San Jose, CA, USA).

[2] = system: mice; details: cited from earlier work
[3] = system: CD34^+vehuHSC; experiment: Cell production and lifespan of CD34+ve huHSC-initiated cultures; format: cell-based, human
Source text: The cells used were CD34^+ve cells purified from the blood of normal human adult donors and post-mobilization of stem cells to the blood. Cells obtained and purified in this manner are used routinely by the National Blood Service Stem Cell Laboratory in Birmingham for bone marrow transplantation. Ethics approval for the use of adult human blood-mobilized stem cells (CD34^+vehuHSC) was from the West Midlands Research Ethics Committee. Informed consent was obtained by the regional National Blood Service Stem Cell Laboratory in Birmingham. CD34^+ve cells were purified to 99 % CD34^+ve, 97 % CD133^+ve, >99 % lineage^−ve (n = 15) using an anti-CD34 monoclonal antibody, immunomagnetic beads, and a CliniMACS magnetic separator. Purified cells were plated at 5 × 10^5 cells/ml in microtiter wells in 200 μl of either RPMI-1640 medium (R and D Systems, Abingdon, UK) or HPGM^TM hematopoietic growth medium (Lonza, UK) containing either 10 % FBS or 10 % human serum, antibiotics (100 U/ml penicillin and 100 μg/ml streptomycin) and stem cell factor (SCF), interleukin (IL)-3, and granulocyte-colony stimulating factor (G-CSF) (all from R and D Systems Abingdon, UK) as stated in the results. Cultures were fed every 2–3 days (with fresh compound), split into microtiter wells, and then expanded into 2 ml Costar wells to maintain a cell density of between 2.5 and 10 × 10^5 cells/ml. Cells were grown at 37 °C in 5 % CO2. Viable cells were enumerated by phase contrast microscopy (400× magnification).
as §1

[4] = biological target: T1, human RARγ (Homo sapiens, UniProt P13631); experiment: Competition with [3H]-ATRA binding, nuclear extracts of Sf21 cells expressing RARγ; details: nuclear extracts of baculovirus-infected Sf21 cells, read-out: Binding affinity ED50, RARγ
T1 construct: made in house
T1 sequence (P13631 1-454): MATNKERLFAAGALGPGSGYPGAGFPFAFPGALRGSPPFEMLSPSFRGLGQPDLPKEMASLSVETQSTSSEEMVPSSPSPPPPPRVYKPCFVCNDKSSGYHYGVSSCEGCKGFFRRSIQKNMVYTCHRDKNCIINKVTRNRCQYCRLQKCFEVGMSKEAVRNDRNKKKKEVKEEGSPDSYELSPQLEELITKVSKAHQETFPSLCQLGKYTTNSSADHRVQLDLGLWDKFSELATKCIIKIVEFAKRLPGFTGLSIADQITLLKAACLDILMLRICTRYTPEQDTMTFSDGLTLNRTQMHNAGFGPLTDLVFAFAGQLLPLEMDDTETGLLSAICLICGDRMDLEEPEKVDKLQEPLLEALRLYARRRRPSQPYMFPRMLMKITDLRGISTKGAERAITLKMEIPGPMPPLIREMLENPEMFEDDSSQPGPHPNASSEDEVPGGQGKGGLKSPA

[5] = system: CD34^+vehuHSCs; experiment: Week-five CAFC and LTC-IC assays of cultured CD34+ve huHSC; format: cell-based, human; details: 100 nM, cells cultured 2 weeks, two donors
Method: (§2) Assays for week-five cobblestone area forming cells (CAFC), long-term culture-initiating cells (LTC-IC), and colony-forming units (CFU) were performed at the Stem Cell Laboratory at the National Blood Service Stem Cell Laboratory using standard procedures and methods, as described by other workers (de […] and Ploemacher [2001]; Denning-Kendall et al. [1996]; Nicol et al. [1996]). CFU assays were performed using Methocult^TM GF H8444 (StemCell Technologies) and in 35 mm petri dishes. The presence of CAFC was scored as the presence of 12 or more closely associated and small cells that were embedded in the MS5 cell feeder layer and blind by an experienced reader. The nature of CFUs, as to colony-forming unit-granulocyte/erythroid/megakaryocyte/monocyte (CFU-GEMM), colony-forming unit-granulocyte/macrophage (CFU-GM), burst-forming unit-erythroid (BFU-E), and colony-forming unit-erythroid (CFU-E), was scored blind at the service by a person who routinely reads colony assays and is accredited. The nature of colonies was confirmed by sampling colonies and staining cytocentrifuged preparations of cells.

[6] = system: CD34^+vehuHSCs; details: 100 nM, 2 weeks, 2 donors
Method: as §2

CCc1ccc(C2=CC(C)(C)Sc3ccc(C#Cc4ccc(C(=O)O)cc4)cc32)cc1 [AGN194310]
effect on differentiation of NB-4 cells ([1]; 100 nM with 10 nM 1,25D, compared with 1,25D alone): did not have an appreciable effect | effect on differentiation of NB-4 cells ([1]; 100 nM, used alone): no effect | expansion of granulopoiesis in knockout mice lacking the receptor for G-CSF ([2]; G-CSFR knockout mice, ref Chee et al. 2013): not seen | effect on myeloid cells after administration to mice ([2]; mice, ref Walkley et al. 2002, Chee et al. 2013): increases in myeloid progenitor cells and mature myeloid cells | cells produced versus control cultures ([3]; 10 nM, by day 20, 10 % FBS, SCF, IL-3): around fourfold more cells | time for which cultures were maintained ([3]; 10 nM, 10 % FBS, SCF, IL-3, control cultures expire by day 30): ≤ 55 days | kinetic of cell production compared with 10 nM ([3]; 100 nM, data not shown): almost identical kinetic | effect on rate of myeloid cell differentiation ([3]; CD34+ve huHSC cultures): did not slow down myeloid cell differentiation | prolonged lifespan of cultures ([3]; human HSCs supplemented with stem cell factor ± interleukin 3, abstract): up to 55 days | IC50 [4]: 2 nM | presence of week-five CAFC and LTC-IC [5]: only present in pan-RAR-antagonized wells | BFU-E together with CFU-E as share of the total colony-forming units ([6]; control 7 %): 41% | CFU-GM as share of the total colony-forming units ([6]; control 93 %): 56% | CFU-GEMM as share of the total colony-forming units ([6]; control not detected): 3%
